Experimental data reported in ChEMBL document CHEMBL1125471, “Isopropyl and phenyl esters of 3 beta-(4-substituted phenyl)tropan-2 beta-carboxylic acids. Potent and selective compounds for the dopamine transporter” (J Med Chem, 1992).

Legend:
[1] = target: Sodium-dependent serotonin transporter (Rattus norvegicus, UniProt P31652); assay: Inhibition of [3H]paroxetine binding to Serotonin transporter
[2] = target: T1, Sodium-dependent dopamine transporter (Rattus norvegicus, UniProt P23977); assay: Inhibition of [3H]WIN-35428l binding to Dopamine transporter
T1 sequence (P23977 whole entry): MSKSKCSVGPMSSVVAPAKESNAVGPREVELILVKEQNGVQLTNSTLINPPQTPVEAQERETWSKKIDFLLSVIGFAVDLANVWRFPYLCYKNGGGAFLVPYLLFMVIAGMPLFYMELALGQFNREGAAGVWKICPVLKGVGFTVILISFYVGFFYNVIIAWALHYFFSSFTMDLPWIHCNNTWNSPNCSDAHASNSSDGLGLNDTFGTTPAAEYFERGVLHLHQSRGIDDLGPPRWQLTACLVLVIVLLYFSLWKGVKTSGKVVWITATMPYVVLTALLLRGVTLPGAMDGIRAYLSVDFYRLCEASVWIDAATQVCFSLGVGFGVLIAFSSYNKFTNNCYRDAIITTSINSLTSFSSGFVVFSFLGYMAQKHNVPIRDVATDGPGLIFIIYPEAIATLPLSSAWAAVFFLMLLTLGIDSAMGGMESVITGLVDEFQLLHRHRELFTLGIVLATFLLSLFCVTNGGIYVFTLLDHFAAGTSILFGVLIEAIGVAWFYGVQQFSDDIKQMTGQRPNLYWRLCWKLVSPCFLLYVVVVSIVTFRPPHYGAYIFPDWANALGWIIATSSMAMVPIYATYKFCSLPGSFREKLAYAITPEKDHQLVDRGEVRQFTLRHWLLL

[3] = target: T2, Norepinephrine transporter (Rattus norvegicus, UniProt Q9WTR4); assay: Inhibition of [3H]mazindol binding to Norepinephrine transporter
T2 sequence (Q9WTR4 whole entry): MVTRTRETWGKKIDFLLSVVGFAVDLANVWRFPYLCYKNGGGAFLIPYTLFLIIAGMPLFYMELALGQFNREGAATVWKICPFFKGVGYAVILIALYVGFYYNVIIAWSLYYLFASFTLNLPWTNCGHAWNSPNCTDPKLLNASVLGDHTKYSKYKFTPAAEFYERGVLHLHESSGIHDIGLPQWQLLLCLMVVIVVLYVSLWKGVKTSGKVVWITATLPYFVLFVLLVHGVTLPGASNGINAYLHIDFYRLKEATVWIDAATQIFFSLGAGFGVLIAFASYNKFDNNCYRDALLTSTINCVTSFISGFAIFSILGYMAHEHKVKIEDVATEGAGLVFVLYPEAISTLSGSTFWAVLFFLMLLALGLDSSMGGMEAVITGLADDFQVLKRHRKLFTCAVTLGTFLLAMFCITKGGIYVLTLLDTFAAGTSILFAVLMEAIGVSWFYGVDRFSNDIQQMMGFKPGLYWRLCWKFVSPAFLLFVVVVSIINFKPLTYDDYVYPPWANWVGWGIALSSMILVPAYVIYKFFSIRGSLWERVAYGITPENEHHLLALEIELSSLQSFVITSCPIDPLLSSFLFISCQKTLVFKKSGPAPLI

[4] = target: Sodium-dependent serotonin transporter (Rattus norvegicus) (UniProt P31652); assay: Ratio of IC50(5-HT) to the IC50(DA)
Chain of Sodium-dependent serotonin transporter (Rattus norvegicus) (P31652 whole entry): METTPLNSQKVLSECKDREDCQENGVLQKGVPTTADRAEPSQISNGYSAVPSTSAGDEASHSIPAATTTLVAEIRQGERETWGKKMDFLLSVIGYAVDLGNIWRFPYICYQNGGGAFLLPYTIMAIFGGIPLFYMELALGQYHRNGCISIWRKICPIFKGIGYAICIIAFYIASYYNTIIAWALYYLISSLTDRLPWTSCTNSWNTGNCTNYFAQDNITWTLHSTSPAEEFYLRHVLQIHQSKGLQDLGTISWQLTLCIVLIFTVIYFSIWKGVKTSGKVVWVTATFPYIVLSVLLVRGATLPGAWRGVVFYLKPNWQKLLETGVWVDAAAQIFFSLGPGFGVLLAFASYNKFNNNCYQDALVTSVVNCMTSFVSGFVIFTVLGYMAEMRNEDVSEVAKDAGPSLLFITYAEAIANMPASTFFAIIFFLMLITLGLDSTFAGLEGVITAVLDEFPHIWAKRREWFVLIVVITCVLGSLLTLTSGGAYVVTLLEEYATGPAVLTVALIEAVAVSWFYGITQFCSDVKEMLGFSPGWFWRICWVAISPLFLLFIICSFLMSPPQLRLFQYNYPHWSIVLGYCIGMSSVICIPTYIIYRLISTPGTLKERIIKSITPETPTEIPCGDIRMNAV

[5] = target: T2, Norepinephrine transporter; assay: Compound was evaluated for the inhibition of [3H]mazindol binding to norepinephrine (NE) transporter
[6] = target: T1, Sodium-dependent dopamine transporter; assay: Compound was evaluated for the inhibition of [3H]WIN-35428l binding to dopamine transporter

Chain of Sodium-dependent serotonin transporter (P31652 whole entry): as above

| SMILES | IC50 [1] [nM] | IC50 [2] [nM] | IC50 [3] [nM] | Ratio [4] | IC50 [5] [nM] | IC50 [6] [nM] |
| --- | --- | --- | --- | --- | --- | --- |
| COC(=O)C1C2CC[C@H](C[C@@H]1c1ccc(Cl)cc1)N2C (some centres undefined) | 44.5 | – | – | – | – | – |
| COC(=O)[C@@H]1C2CC[C@H](C[C@@H]1c1ccc(I)cc1)N2C | 4.2 | 1.26 | 34.6 | 3.3 | – | – |
| Cc1ccc([C@H]2C[C@H]3CCC([C@H]2C(=O)OC(C)C)N3C)cc1 | 6410 | 5.29 | 4300 | 1210 | – | – |
| CC(C)OC(=O)[C@@H]1C2CC[C@H](C[C@@H]1c1ccc(Cl)cc1)N2C | 1400 | 1.41 | 2150 | 996 | – | – |
| COC(=O)[C@H]1[C@@H](c2ccc(F)cc2)C[C@H]2CC[C@H]1N2C | 759 | – | 1240 | – | – | – |
| CC(C)OC(=O)[C@@H]1C2CC[C@H](C[C@@H]1OC(=O)c1ccccc1)N2C | 25700 | – | 23500 | 122 | – | – |
| CCOC(=O)[C@@H]1C2CC[C@H](C[C@@H]1OC(=O)c1ccccc1)N2C | 9060 | 130 | 26800 | 70 | – | – |
| CN1C2CC[C@@H]1C[C@H](OC(=O)c1ccccc1)[C@@H]2C(=O)Oc1ccccc1 | 57400 | 112 | 37400 | 512 | – | – |
| COC(=O)[C@@H]1C2CC[C@H](C[C@@H]1c1ccc(C)cc1)N2C | – | 1.71 | – | – | – | – |
| CN1C2CC[C@@H]1C[C@H](c1ccc(Cl)cc1)[C@@H]2C(=O)Oc1ccccc1 | 2340 | 1.99 | 4570 | 1170 | – | – |
| Cc1ccc([C@H]2C[C@H]3CCC([C@H]2C(=O)Oc2ccccc2)N3C)cc1 | 29700 | 3.27 | 10800 | 9070 | – | – |
| CN1C2CC[C@@H]1C[C@H](OC(=O)c1ccccc1)[C@@H]2C(=O)OCCCc1ccccc1 | 374 | – | – | – | 25100 | – |
| CN1C2CC[C@@H]1C[C@H](c1ccc(I)cc1)[C@@H]2C(=O)Oc1ccccc1 | 326 | 1.51 | 18300 | 216 | – | – |
| CCCOC(=O)[C@@H]1C2CC[C@H](C[C@@H]1OC(=O)c1ccccc1)N2C | 4130 | – | – | – | 15800 | 191 |
| CC(C)OC(=O)[C@@H]1C2CC[C@H](C[C@@H]1c1ccc(I)cc1)N2C | 310 | 0.43 | 864 | 721 | – | – |
| COC(=O)[C@@H]1C2CC[C@H](C[C@@H]1c1ccccc1)N2C | – | – | 2080 | – | – | – |
